Experimental findings from patent publication US20170258769A1, “A Method for Topically Treating Actinic Keratosis on the Trunk (except chest) and Extremities with Ingenol 3-(3,5-diethylisoxazole-4-carboxylate)” (LEO Laboratories Limited, priority 2014, published 2017) are described below.

One data set concerns actinic keratosis. The data set is described as follows: Part 2: open-label trial, 0.1% gel once daily for three consecutive days on trunk (except chest) and extremities. In kind it is in vivo, human. The source says:
The outcome for Part 2 is safety and efficacy in a once daily application for three consecutive days on the trunk (except chest) and extremities. The efficacy in treating of the AK will be measured as reduction in AK count in the treated area of lesions which are not considered hyperkeratotic/hypertrophic.
In parallel the efficacy in treating of the AK will be measured as reduction in AK count in the treated area of lesions which are considered hyperkeratotic/hypertrophic.
The reduction in AK count will be performed at week 4 and 8 no matter the type of lesion. Also complete clearance of AKs in the treated area which are not considered hyperkeratotic/hypertrophic at week 8 will be measured.
The trial medication applied is preferably a gel. The gel formulation comprises: isopropyl alcohol, hydroxyethyl cellulose, benzyl alcohol, citric acid monohydrate, sodium citrate dehydrate and water and active compound in a 0.1% concentration. For this particular trial, the dosing is two unit dose tubes daily, each containing 0.67 g.
To qualify for part 2 of the trial, the subjects must have 5-20 clinically visible and discrete AKs within a contiguous are of approximately 250 cm^2 area on the trunk (except chest) and extremities. In addition to the requirement of 5-20 clinically typical, visible and discrete AKs within the selected treatment area, subjects may also have visible and discrete hyperkeratotic/hypertrophic lesions in this area. The subjects will be treated with a dose of 0.1% as a once daily three consecutive days treatment and followed for 8 weeks.
The trial consists of an initial part, where 18 subjects will be treated on the trunk (except chest) and extremities. […] As this is a safety trial, it is considered justified to conduct this clinical trial as an open-label, uncontrolled trial. An early safety and tolerability evaluation will be performed following the 3 days treatment. If safety and tolerability is found acceptable by the Early Data Review Committee, and additional 44 subjects will be enrolled in order to expand safety observations and obtain an estimate of treatment efficacy.
LSRs are evaluated at all visits following visit 1. AK lesion counts are performed on Visit 2, 6 and 7.
tactile) assessment of the extent of photo-damage in the treatment area with respect to 1) fine wrinkling, 2) coarse wrinkling, 3) mottled pigmentation, 4) roughness, 5) sallowness, 6) skin laxity, and 7) telangiectasia. Severity for each of these characteristics will be on a 5-point scale: None (0), Mild (1), Moderate (2), Severe (3), Extreme (4).
At Visit 7 (Week 8) the Investigator will make an overall clinical (visual and tactile) assessment of the subject's photo-damage change from baseline in the treatment area (including an integrated assessment of fine wrinkling, coarse wrinkling, mottled pigmentation, roughness, sallowness, skin laxity, and telangiectasia based on the subject's appearance at the baseline visit).
At Visit 7 (Week 8), the subjects will complete a self-assessment questionnaire evaluating the change in the 1) overall appearance of the skin and 2) overall feel of the skin after treatment. The scoring will be on a 5-point scale: Much worsened, somewhat worsened, no change, somewhat improved, much improved.
The secondary response criteria will be analysed for the full analysis set and for the per protocol analysis set. The ratio of number of AK lesions at week 8 relative to baseline, excluding lesions identified at base line as hyperkeratotic/hypertrophic lesions, will be tabulated by treatment group. Separately for each treatment group, the rate and corresponding 95% confidence interval will be estimated from a negative binomial regression on the AK count at week 8 with the log baseline value as an offset variable. The same analysis will be performed for the subgroup of lesions identified as hyperkeratotic/hypertrophic at baseline. […]

A further data set relates to dermal tumours. Put plainly: in vivo studies in mice, effects on dermal tumours. The source says:
The exact mechanism of action of ingenol 3-(3,5-diethylisoxazole-4-carboxylate) continues to be investigated, but it is believed that ingenol 3-(3,5-diethylisoxazole-4-carboxylate) has a dual mechanism of action inducing cell death as well as stimulation of immune response.

Data set [1] can be described thus: Part 1: dose escalation trial, gel once daily for two consecutive days, dose limiting toxicity based on local skin reactions. In kind it is in vivo, human. The source says: Local skin reactions (LSRs) occur sometimes in the treated area. Often LSRs are quantified by a scale evaluating the following types of skin reactions: erythema, flaking/scaling, crusting, swelling, vasiculation/postulation, and erosion/ulceration which are categorized into categories 0-4 depending on the severity of the reactions. The present invention utilizes data obtained from a previous dose escalation trial, wherein maximal tolerated doses were identified.
In the trial pre-defined grades of LSRs will constitute Dose Limiting Toxicity.
Dose Limiting toxicity (DLT) is defined one or more of the following LSRs: • crusting Grade 4 • Erosion/ulceration Grade 4 • vesiculation/postulation Grade 4 or
Two or more of the following LSRs: • Crusting Grade 3 • Swelling grade 4 • Erosion/ulceration Grade 3 • vesiculation/postulation Grade 3 or • other clinically relevant signs or symptoms observed, which the Investigator judges to be counted as a DLT. Maximum tolerated dose (MTD) is declared as dose level at which less than 4 subjects out of experience a DLT of cohort of 12 subjects.
Part 1 was a dose escalation study conducted with a once daily application of trial medication for two consecutive days and continued until the MTD was identified.
Dose escalation proceeded if the safety and tolerability data of the subject up to day 8 was reviewed and considered satisfactory. The treatment consisted of once daily treatment for 2 consecutive days. Up to 5 different doses may be investigated in cohorts of 1 subject. The number of subjects in each cohort depended on the number of observed DLTs. However, the MTD was always be confirmed in a cohort of 12 subjects. […] Part 2 is a study of the efficacy of the 0.1% dose identified in part 1 in a three day regimen.
Part 1: Trial medication, ingenol 3-(3,5-diethylisoxazole-4-carboxylate) gel, will be applied to the treatment area once daily for two consecutive days until the maximum tolerated dose has been reached for each formulation. Up to five different doses of active compound in gel may be investigated in cohorts 12 subjects. […]

Where [2] appears, read: highest dose 0.1%, once daily for 2 consecutive days.

As for `CCc1noc(CC)c1C(=O)O[C@H]1C(C)=C[C@]23C(=O)[C@@H](C=C(CO)[C@@H](O)[C@]12O)[C@H]1[C@@H](C[C@H]3C)C1(C)C` [ingenol 3-(3,5-diethylisoxazole-4-carboxylate)], the side-effects entry with actinic keratosis (0.1% gel, once daily three consecutive days) is listed as “acceptable”. The “reduction in AK count” value in the data set on actinic keratosis (0.1% gel, once daily three consecutive days, approx. 250 cm^2 area, week 8, 62 patients) was 59%. Also, in the data set on actinic keratosis (0.1% gel, once daily three consecutive days, week 8), the complete clearance was 23%. Also, the “time at which side-effects maximize” value with actinic keratosis (0.1% gel, once daily three consecutive days, rapid decline thereafter) amounted to 4 days. For the same molecule, the “cosmetic outcome of the treatment” value with actinic keratosis (0.1% gel, three day regimen) was “good”. The “patients with photo damage improved” value in the data set with actinic keratosis (investigator assessment, fraction of patients) was “two-thirds”. Also, the “subjects reporting improvement in appearance and feel” value in the data set on actinic keratosis (self-assessment by subject) was “more than 70%”. In the data set on dermal tumours, the “efficacy in eliminating dermal tumours, compared with ingenol mebutate” value is recorded as “more efficacious than ingenol mebutate”. Further, in data set [1] (setting [2]), the “dose limiting toxicity (DLT)” value is “no real DLT was identified” and the tolerability result is on record as “well tolerated”. Further, the “tolerability with respect to LSRs and application site reaction” value in data set [1] (selected dose (0.1%), two days dosing regimen) is reported as “well tolerated”.
